From patent publication US9326513B2, “Fungicidal compositions” (Syngenta Participations AG, priority 2011, dated 2016)
Several values for one entry are separate records, joined by “and”; a condition that tells them apart may be missing. Equal values may be shown once. Read-outs that look alike come from different tables or passages of the source.

Key:
Pythium ultimum = Pythium ultimum (damping off), PDB microtiter plate, visual after 48 hrs; type: cell-based; conditions: solo, rate 0.03125 ppm
[1] = system: Phakopsora pachyrhizi (triazole tolerant soybeanrust strain); assay: Phakopsora pachyrhizi on soybean, preventive treatment; type: in vivo; conditions: solo, soybean leaf discs, 1 day preventive, 11 days after application
Septoria tritici [2] = assay: Septoria tritici (leaf blotch), YBG microtiter plate, photometric growth inhibition after 6 days; type: cell-based; conditions: Zymoseptoria tritici, 144 h, solo
Source text: (§1) In the following Tables ‘Activity (%)’ means the assessed experimental activity (% disease control in this test when compared to untreated control leaf disks under the same conditions, which show extensive disease development) and “P” is the expected value calculated (expected) activity according to the COLBY formula (see above). The column headed ‘S?’ indicates whether or not synergy was observed, with ‘y’ meaning that synergy was observed.
Septoria tritici (Leaf Blotch):
After placing solutions of the test compounds (containing 0.2% DMSO) into a microtiter plate (96-well format), an equal amount of the nutrient broth (YBG) was added to each of the well. Finally the fungal spore solution was added. The test plates were incubated at 20° C. The inhibition of growth was determined photometrically after 6 days and the activity calculated in relation to untreated control.

Sclerotinia sclerotiorum = Sclerotinia sclerotiorum on oilseed rape, preventive treatment; type: in vivo; conditions: solo, 1 day preventive, 11 days after application
Source text: as §1
Sclerotinia sclerotiorum on Oilseed Rape, Preventive Treatment
The compound activity was tested under 1 day preventive conditions. Oilseed rape plants with 3 unfolded leafs were sprayed with a track sprayer and 200 I/ha spray volume with the test compounds, either solo or in tankmix as shown in the table below.
1 day after application the plants were infested with a solution of Sclerotinia sclerotiorum mycelium. The plants were placed under plastic hoods and high humidity conditions in a climate chamber at 14 h day/10 h night cycle and 15° C. Disease infestation was evaluated visually 11 days after application and average activity calculated in relation to disease severity on untreated check.

[3] = system: Monographella nivalis (syn. Microdochium nivale, Fusarium nivale); assay: Monographella nivalis (snow mould, foot rot of cereals), PDB microtiter plate, visual after 72 hrs; type: cell-based; conditions: Monographella nivalis
Botrytis cinerea = Botrytis cinerea (gray mould), PDB microtiter plate, visual after 72 hrs; type: cell-based; conditions: alone
Gaeumannomvces graminis = Gaeumannomvces graminis (take-all of cereals), PDB microtiter plate, visual after 48 hrs; type: cell-based; conditions: solo
Source text: In the following Tables ‘Activity (%)’ means the assessed experimental activity (% disease control in this test when compared to untreated control leaf disks under the same conditions, which show extensive disease development) and “P” is the expected value calculated (expected) activity according to the COLBY formula (see above). The column headed ‘S?’ indicates whether or not synergy was observed, with ‘y’ meaning that synergy was observed. Gaeumannomvces graminis (Take-all of Cereals) Mycelial fragments of the fungus from cryogenic storage were directly mixed into nutrient broth (PDB potato dextrose broth). After placing a (DMSO) solution of the test compounds into a microtiter plate (96-well format) the nutrient broth containing the fungal spores was added.

Septoria tritici [4] = assay: Septoria tritici on wheat, preventive treatment; type: in vivo; conditions: solo, wheat Riband, 1 day preventive, 18 days after application
[5] = system: Puccinia recondita f. sp. tritici; assay: Puccinia recondita f. sp. tritici / wheat / leaf disc curative (brown rust); type: in vivo; conditions: foliar, compared to untreated control leaf disks, read-out: disease control
Procedure: Puccinia recondita f. sp. tritici/Wheat/Leaf Disc Curative (Brown Rust) Wheat leaf segments cv. Kanzler are placed on agar in multiwell plates (24-well format). The leaf segments are inoculated with a spore suspension of the fungus. Plates were stored in darkness at 19° C. and 75% rh. The formulated test compound diluted in water was applied 1 day after inoculation.

[6] = system: Puccinia recondita f. sp. tritici; assay: Puccinia recondita f. sp. tritici / wheat / leaf disc preventative (brown rust); type: in vivo; conditions: foliar, compared to untreated control leaf disks, read-out: disease control
Source text: Puccinia recondita f. sp. tritici/Wheat/Leaf Disc Preventative (Brown Rust) Wheat leaf segments cv. Kanzler were placed on agar in multiwell plates (24-well format) and sprayed with the formulated test compound diluted in water. The leaf disks were inoculated with a spore suspension of the fungus 1 day after application.

[7] = system: Fusarium graminearum and Fusarium culmorum; type: in vivo; conditions: solo, wheat, 1 day preventive, 9 days after application
[8] = system: Blumeria graminis f. sp. tritici (Erysiphe graminis f. sp. tritici); assay: Blumeria graminis f. sp. tritici / wheat / leaf disc preventative (powdery mildew on wheat); type: in vivo; conditions: foliar, compared to untreated control leaf disks, read-out: disease control
In short: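 Wheat leaf segments (cv. Kanzler) on agar were sprayed with formulated compound in water, inoculated with powdery mildew 1 day later, and kept at 20° C, 60% rh (24 h dark, then 12 h light/12 h dark). Percent disease control versus untreated scored 6-8 days after application; tested at 200 ppm.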

Septoria tritici [9] = assay: Septoria tritici (leaf blotch), PDB microtiter plate, visual after 72 hrs; type: cell-based; conditions: Zymoseptoria tritici, single compound, 0.0125 ppm
Pyrenophora teres = Pyrenophora teres / barley / leaf disc preventative (net blotch); type: in vivo; conditions: foliar, compared to untreated control leaf disks, read-out: disease control
Source text: Pyrenophora teres/Barley/Leaf Disc Preventative (Net Blotch) Barley leaf segments cv. Hasso were placed on agar in a multiwell plate (24-well format) and sprayed with the formulated test compound diluted in water. The leaf segments were inoculated with a spore suspension of the fungus 2 days after application.

Sphaerotheca fuliginea = Sphaerotheca fuliginea (powdery mildew) on cucumber, preventive treatment; type: in vivo; conditions: solo, 2 days preventive, 10 days after application
Source text: In the following Tables 'Activity (%)' means the assessed experimental activity (% disease control in this test when compared to untreated control leaf disks under the same conditions, which show extensive disease development) and “P” is the expected value calculated (expected) activity according to the COLBY formula (see above). The column headed 'S?' indicates whether or not synergy was observed, with 'y' meaning that synergy was observed. Sphaerotheca fuliqinea (Powdery Mildew) on Cucumber, Preventive Treatment […] Cucumber plants with unfolded cotyledons were sprayed with a roomsprayer and 40 ml/4 plants spray volume with the test compounds, either solo or in […] shown in the table below. 2 days after application the plants were infested with spores of Sphaerotheca fuliginea.

## COCC(=O)N(c1c(C)cccc1C)[C@H](C)C(=O)OC [Mefenoxam]
Pythium ultimum
  Activity (%): 50%

## CC(C1CC1)C(O)(Cn1cncn1)c1ccc(Cl)cc1 (stereo not drawn) [Cyproconazole]
[1]; rate 0.5 g ai/ha
  Activity: 38%
[1]; rate 2 g ai/ha
  Activity: 53%
Septoria tritici [2]; rate 0.25 ppm
  inhibition of growth at 0.25 ppm: 0%
Septoria tritici [2]; rate 0.5 ppm
  inhibition of growth at 0.5 ppm: 64%
Septoria tritici [2]; rate 1 ppm
  inhibition of growth at 1 ppm: 84%
Septoria tritici [2]; rate 1.25 ppm
  inhibition of growth at 1.25 ppm: 39%
Septoria tritici [2]; rate 2.5 ppm
  inhibition of growth at 2.5 ppm: 76%

## O=C(Nc1ccccc1-c1ccc(Cl)cc1)c1cccnc1Cl [Boscalid]
Sclerotinia sclerotiorum; rate 50 g a.i./ha
  Activity: 8%
Sclerotinia sclerotiorum; rate 100 g a.i./ha
  Activity: 25%

## Cn1cc(C(=O)Nc2cccc3c2C2CCC3C2=C(Cl)Cl)c(C(F)F)n1 (stereo not drawn) [(V), N-[9-(dichloromethylene)-1,2,3,4-tetrahydro-1,4-methanonaphthalen-5-yl]-3-(difluoromethyl)-1-methyl-1H-pyrazole-4-carboxamide, reference compound]
[3]; applied alone, 0.03125 ppm
  inhibition at 0.03125 ppm: 0%
[3]; applied alone, 0.0625 ppm
  inhibition at 0.0625 ppm: 50%
[3]; applied alone, 0.125 ppm
  inhibition at 0.125 ppm: 70%
[3]; applied alone, rate 0.03125 ppm
  inhibition at 0.03125 ppm: 0%
[3]; applied alone, rate 0.0625 ppm
  inhibition at 0.0625 ppm: 50%
Botrytis cinerea; Botrytis cinerea, rate 0.015625 ppm
  inhibition at 0.015625 ppm: 20%
Botrytis cinerea; Botrytis cinerea, rate 0.03125 ppm, read-out: Activity (%)
  inhibition at 0.03125 ppm: 50%
Botrytis cinerea; Botrytis cinerea, rate 0.0625 ppm, read-out: Activity (%)
  inhibition at 0.0625 ppm: 70%
Botrytis cinerea; Botrytis cinerea, rate 0.125 ppm
  inhibition at 0.125 ppm: 70%
Gaeumannomvces graminis; rate 0.015625 ppm
  inhibition at 0.015625 ppm: 0%
Gaeumannomvces graminis; rate 0.03125 ppm
  inhibition at 0.03125 ppm: 20%
Gaeumannomvces graminis; rate 0.0625 ppm
  inhibition at 0.0625 ppm: 70%

## CCN(C)/C=N/c1cc(Br)c(OCc2ccccc2C)nc1C [Q.151]
Septoria tritici [4]; 1 g a.i./ha
  Activity: 0%
Septoria tritici [4]; 3 g a.i./ha
  Activity: 0% and 4%
Septoria tritici [4]; 9 g a.i./ha
  Activity: 0%
Septoria tritici [4]; 81 g a.i./ha
  Activity: 43%
[5]
  pest or weed control at 200 ppm: ≥ 50%
[6]
  pest or weed control at 200 ppm: ≥ 50%
[7]; 200 g a.i./ha
  Activity: 3%
[8]
  pest or weed control at 200 ppm: ≥ 50%

## OC(Cc1ccccc1Cl)(Cn1nc[nH]c1=S)C1(Cl)CC1 (stereo not drawn) [Prothioconazole]
[3]; applied alone, 0.0125 ppm
  inhibition at 0.0125 ppm: 0%
[3]; applied alone, rate 0.0015625 ppm
  inhibition at 0.0015625 ppm: 0%
[3]; applied alone, rate 0.003125 ppm
  inhibition at 0.003125 ppm: 0%
[3]; applied alone, rate 0.00625 ppm
  inhibition at 0.00625 ppm: 0%
[3]; applied alone, rate 0.0125 ppm
  inhibition at 0.0125 ppm: 0%
[3]; single compound, rate 0.0125 ppm
  inhibition at 0.0125 ppm: 0%
[7]; 50 g a.i./ha
  Activity: 55%
Septoria tritici [9]
  inhibition at 0.0125 ppm: 70%
Botrytis cinerea; Botrytis cinerea, rate 0.00625 ppm
  inhibition at 0.00625 ppm: 0%
Botrytis cinerea; Botrytis cinerea, rate 0.0125 ppm
  inhibition at 0.0125 ppm: 0%
Botrytis cinerea; Botrytis cinerea, rate 0.025 ppm
  inhibition at 0.025 ppm: 0%
Botrytis cinerea; Botrytis cinerea, rate 0.05 ppm
  inhibition at 0.05 ppm: 50%
Botrytis cinerea; rate 0.05 ppm
  Activity (%): 70%
Septoria tritici [2]; rate 0.01953125 ppm
  inhibition of growth at 0.0195312 ppm: 69%
Septoria tritici [2]; rate 0.03125 ppm, read-out: Activity
  inhibition of growth at 0.03125 ppm: 9%
Septoria tritici [2]; rate 0.0390625 ppm
  inhibition of growth at 0.0390625 ppm: 63%
Septoria tritici [2]; rate 0.0625 ppm
  inhibition of growth at 0.0625 ppm: 63%

## CCN(C)/C=N/c1cc(Br)c(OC2CC=CC2)nc1C [Q.063]
[5]
  pest or weed control at 200 ppm: ≥ 50%
[6]
  pest or weed control at 200 ppm: ≥ 50%
Pyrenophora teres
  pest or weed control at 200 ppm: ≥ 50%
[1]; rate 0.5 g ai/ha
  Activity: 0%
[1]; rate 2 g ai/ha
  Activity: 0%
[8]
  pest or weed control at 200 ppm: ≥ 50%

## CSC(=O)c1cccc2nnsc12 [Acibenzolar-s-methyl]
Sphaerotheca fuliginea; rate 0.6 ppm
  Activity: 0%
Sphaerotheca fuliginea; rate 2 ppm
  Activity: 0%
Sphaerotheca fuliginea; rate 6 ppm
  Activity: 0%
Sphaerotheca fuliginea; rate 20 ppm
  Activity: 4%

## CCN(C)/C=N/c1cc(Br)c(OCCc2ccc(F)cc2)nc1C [Q.129]
[5]
  pest or weed control at 200 ppm: ≥ 50%
[6]
  pest or weed control at 200 ppm: ≥ 50%
other
  melting point: 46 to 48 °C
Pyrenophora teres
  pest or weed control at 200 ppm: ≥ 50%
[8]
  pest or weed control at 200 ppm: ≥ 50%

## CCN(C)/C=N/c1cc(Br)c(OCc2ccccc2F)nc1C [Q.298]
[5]
  pest or weed control at 200 ppm: ≥ 50%
[6]
  pest or weed control at 200 ppm: ≥ 50%
other
  melting point: 57 to 61 °C
Pyrenophora teres
  pest or weed control at 200 ppm: ≥ 50%
[8]
  pest or weed control at 200 ppm: ≥ 50%

## CCN(C)/C=N/c1cc(Br)c(OCc2cc(C)ccc2C)nc1C [Q.154]
[5]
  pest or weed control at 200 ppm: ≥ 50%
[6]
  pest or weed control at 200 ppm: ≥ 50%
other
  melting point: 53 to 57 °C
Pyrenophora teres
  pest or weed control at 200 ppm: ≥ 50%
[8]
  pest or weed control at 200 ppm: ≥ 50%
